Results reported in ChEMBL document CHEMBL3885881, “DrugMatrix”.

Organism: Rattus norvegicus
Test: DrugMatrix - Regimen: Daily Repeat
Assay type: toxicity, organism-based, Sprague-Dawley
Set-up: regimen Daily Repeat, gender Male, age 6-8 weeks
Settings: in vivo, po, route oral GAVAGE, vehicle 100 % WATER; for ABSOLUTE BASOPHIL / ABSOLUTE EOSINOPHIL / ABSOLUTE LYMPHOCYTE / ABSOLUTE MONOCYTE / ABSOLUTE SEGMENTED NEUTROPHIL / BASOPHIL / EOSINOPHIL / ERYTHROCYTE COUNT / HEMATOCRIT / HEMOGLOBIN / LEUKOCYTE COUNT / LYMPHOCYTE / MEAN CORPUSCULAR HEMOGLOBIN / MEAN CORPUSCULAR HEMOGLOBIN CONCENTRATION / MEAN CORPUSCULAR VOLUME / MONOCYTE / NEUTROPHIL / NUCLEATED RED BLOOD CELLS / PLATELET COUNT: tissue Blood; for ALANINE AMINOTRANSFERASE / ALBUMIN / ALKALINE PHOSPHATASE / ASPARTATE AMINOTRANSFERASE / BLOOD UREA NITROGEN / CARBON DIOXIDE / CHLORIDE / CHOLESTEROL / CREATINE PHOSPHOKINASE / CREATININE / GLUCOSE / LACTATE DEHYDROGENASE / LIPASE / PHOSPHORUS / POTASSIUM / SODIUM / TOTAL BILIRUBIN / TOTAL PROTEIN / URIC ACID: tissue Plasma
[1] = 46 mg/kg, 72 h, dose level High, time 3 day
[2] = 46 mg/kg, 120 h, dose level High, time 5 day
[3] = […], 72 h, dose 4.6 mg/Kg, dose level Low, time 3 day
[4] = […], 120 h, dose 4.6 mg/Kg, dose level Low, time 5 day

CC(C)NNC(=O)c1ccncc1 [IPRONIAZID]
ABSOLUTE BASOPHIL [1]: 0 CELLS/uL
ABSOLUTE EOSINOPHIL [1]: 0 CELLS/uL
ABSOLUTE LYMPHOCYTE [1]: 9249.33 CELLS/uL
ABSOLUTE MONOCYTE [1]: 21.67 CELLS/uL
ABSOLUTE SEGMENTED NEUTROPHIL [1]: 762.33 CELLS/uL
BASOPHIL [1]: 0%
EOSINOPHIL [1]: 0%
ERYTHROCYTE COUNT [1]: 5.56 x10E6/uL
HEMATOCRIT [1]: 34.37%
HEMOGLOBIN [1]: 13.47 G/DL
LEUKOCYTE COUNT [1]: 10.03 x10E3/uL
LYMPHOCYTE [1]: 91.33%
MEAN CORPUSCULAR HEMOGLOBIN [1]: 24.27 pg
MEAN CORPUSCULAR HEMOGLOBIN CONCENTRATION [1]: 39.17 G/DL
MEAN CORPUSCULAR VOLUME [1]: 61.87 fL
MONOCYTE [1]: 0.33%
NEUTROPHIL [1]: 8.33%
NUCLEATED RED BLOOD CELLS [1]: 0 /100WBC
PLATELET COUNT [1]: 1304.67 x10E3/uL
ALANINE AMINOTRANSFERASE [1]: 37 u/L
ALBUMIN [1]: 4.23 G/DL
ALKALINE PHOSPHATASE [1]: 308 u/L
ASPARTATE AMINOTRANSFERASE [1]: 89 u/L
BLOOD UREA NITROGEN [1]: 17 mg/dL
CARBON DIOXIDE [1]: 29 mmol/L
CHLORIDE [1]: 103 MEQ/L
CHOLESTEROL [1]: 80.67 mg/dL
CREATINE PHOSPHOKINASE [1]: 622.67 u/L
CREATININE [1]: 0.21 mg/dL
GLUCOSE [1]: 160.67 mg/dL
LACTATE DEHYDROGENASE [1]: 288.33 u/L
LIPASE [1]: 11.67 u/L
PHOSPHORUS [1]: 12.93 mg/dL
POTASSIUM [1]: 6.22 MEQ/L
SODIUM [1]: 145.5 MEQ/L
TOTAL BILIRUBIN [1]: 0.17 mg/dL
TOTAL PROTEIN [1]: 5.97 G/DL
URIC ACID [1]: 1.77 mg/dL
ABSOLUTE BASOPHIL [2]: 0 CELLS/uL
ABSOLUTE EOSINOPHIL [2]: 126 CELLS/uL
ABSOLUTE LYMPHOCYTE [2]: 15175.33 CELLS/uL
ABSOLUTE MONOCYTE [2]: 93.67 CELLS/uL
ABSOLUTE SEGMENTED NEUTROPHIL [2]: 271.67 CELLS/uL
BASOPHIL [2]: 0%
EOSINOPHIL [2]: 0.67%
ERYTHROCYTE COUNT [2]: 5.63 x10E6/uL
HEMATOCRIT [2]: 33.73%
HEMOGLOBIN [2]: 13.4 G/DL
LEUKOCYTE COUNT [2]: 15.67 x10E3/uL
LYMPHOCYTE [2]: 97%
MEAN CORPUSCULAR HEMOGLOBIN [2]: 23.8 pg
MEAN CORPUSCULAR HEMOGLOBIN CONCENTRATION [2]: 39.77 G/DL
MEAN CORPUSCULAR VOLUME [2]: 59.8 fL
MONOCYTE [2]: 0.67%
NEUTROPHIL [2]: 1.67%
NUCLEATED RED BLOOD CELLS [2]: 0 /100WBC
PLATELET COUNT [2]: 1219.33 x10E3/uL
ALANINE AMINOTRANSFERASE [2]: 39 u/L
ALBUMIN [2]: 3.87 G/DL
ALKALINE PHOSPHATASE [2]: 312.33 u/L
ASPARTATE AMINOTRANSFERASE [2]: 118.33 u/L
BLOOD UREA NITROGEN [2]: 18.67 mg/dL
CARBON DIOXIDE [2]: 22 mmol/L
CHLORIDE [2]: 106.67 MEQ/L
CHOLESTEROL [2]: 56 mg/dL
CREATINE PHOSPHOKINASE [2]: 1266.33 u/L
CREATININE [2]: 0.24 mg/dL
GLUCOSE [2]: 163.67 mg/dL
LACTATE DEHYDROGENASE [2]: 328.67 u/L
LIPASE [2]: 10 u/L
PHOSPHORUS [2]: 11.83 mg/dL
POTASSIUM [2]: 5.65 MEQ/L
SODIUM [2]: 148.8 MEQ/L
TOTAL BILIRUBIN [2]: 0.23 mg/dL
TOTAL PROTEIN [2]: 5.53 G/DL
URIC ACID [2]: 1.8 mg/dL
ABSOLUTE BASOPHIL [3]: 0 CELLS/uL
ABSOLUTE EOSINOPHIL [3]: 0 CELLS/uL
ABSOLUTE LYMPHOCYTE [3]: 11668 CELLS/uL
ABSOLUTE MONOCYTE [3]: 117.67 CELLS/uL
ABSOLUTE SEGMENTED NEUTROPHIL [3]: 1081 CELLS/uL
BASOPHIL [3]: 0%
EOSINOPHIL [3]: 0%
ERYTHROCYTE COUNT [3]: 4.84 x10E6/uL
HEMATOCRIT [3]: 31.5%
HEMOGLOBIN [3]: 12.83 G/DL
LEUKOCYTE COUNT [3]: 12.87 x10E3/uL
LYMPHOCYTE [3]: 90.33%
MEAN CORPUSCULAR HEMOGLOBIN [3]: 26.5 pg
MEAN CORPUSCULAR HEMOGLOBIN CONCENTRATION [3]: 40.77 G/DL
MEAN CORPUSCULAR VOLUME [3]: 65 fL
MONOCYTE [3]: 1%
NEUTROPHIL [3]: 8.67%
NUCLEATED RED BLOOD CELLS [3]: 0 /100WBC
PLATELET COUNT [3]: 1111.67 x10E3/uL
ALANINE AMINOTRANSFERASE [3]: 56 u/L
ALBUMIN [3]: 4.23 G/DL
ALKALINE PHOSPHATASE [3]: 342.67 u/L
ASPARTATE AMINOTRANSFERASE [3]: 108 u/L
BLOOD UREA NITROGEN [3]: 13.67 mg/dL
CARBON DIOXIDE [3]: 26.33 mmol/L
CHLORIDE [3]: 105 MEQ/L
CHOLESTEROL [3]: 80.67 mg/dL
CREATINE PHOSPHOKINASE [3]: 777.33 u/L
CREATININE [3]: 0.24 mg/dL
GLUCOSE [3]: 165.67 mg/dL
LACTATE DEHYDROGENASE [3]: 493.33 u/L
LIPASE [3]: 8.33 u/L
PHOSPHORUS [3]: 13.3 mg/dL
POTASSIUM [3]: 6.06 MEQ/L
SODIUM [3]: 144.47 MEQ/L
TOTAL BILIRUBIN [3]: 0.17 mg/dL
TOTAL PROTEIN [3]: 5.67 G/DL
URIC ACID [3]: 1.5 mg/dL
ABSOLUTE BASOPHIL [4]: 0 CELLS/uL
ABSOLUTE EOSINOPHIL [4]: 175.33 CELLS/uL
ABSOLUTE LYMPHOCYTE [4]: 14127.33 CELLS/uL
ABSOLUTE MONOCYTE [4]: 0 CELLS/uL
ABSOLUTE SEGMENTED NEUTROPHIL [4]: 1364 CELLS/uL
BASOPHIL [4]: 0%
EOSINOPHIL [4]: 1%
ERYTHROCYTE COUNT [4]: 5.43 x10E6/uL
HEMATOCRIT [4]: 34.73%
HEMOGLOBIN [4]: 13.6 G/DL
LEUKOCYTE COUNT [4]: 15.67 x10E3/uL
LYMPHOCYTE [4]: 90.33%
MEAN CORPUSCULAR HEMOGLOBIN [4]: 25.07 pg
MEAN CORPUSCULAR HEMOGLOBIN CONCENTRATION [4]: 39.17 G/DL
MEAN CORPUSCULAR VOLUME [4]: 63.97 fL
MONOCYTE [4]: 0%
NEUTROPHIL [4]: 8.67%
NUCLEATED RED BLOOD CELLS [4]: 0 /100WBC
PLATELET COUNT [4]: 1364.67 x10E3/uL
ALANINE AMINOTRANSFERASE [4]: 58.33 u/L
ALBUMIN [4]: 4.33 G/DL
ALKALINE PHOSPHATASE [4]: 411.67 u/L
ASPARTATE AMINOTRANSFERASE [4]: 88.33 u/L
BLOOD UREA NITROGEN [4]: 18.33 mg/dL
CARBON DIOXIDE [4]: 27.33 mmol/L
CHLORIDE [4]: 103 MEQ/L
CHOLESTEROL [4]: 72 mg/dL
CREATINE PHOSPHOKINASE [4]: 231.67 u/L
CREATININE [4]: 0.23 mg/dL
GLUCOSE [4]: 179 mg/dL
LACTATE DEHYDROGENASE [4]: 197.33 u/L
LIPASE [4]: 11 u/L
PHOSPHORUS [4]: 14.8 mg/dL
POTASSIUM [4]: 6.06 MEQ/L
SODIUM [4]: 146.8 MEQ/L
TOTAL BILIRUBIN [4]: 0.2 mg/dL
TOTAL PROTEIN [4]: 6.07 G/DL
URIC ACID [4]: 2.07 mg/dL
